Molecules are shown by their SMILES. A value given as a limit tells only on which side of the number the result lay.

Melting point data for 87 compounds are collected here from a melting point compilation (Tetko et al.; mined from patent text by program, amines drawn as free bases though some values may be those of a salt).

`CC(C)(CO)CCCCC(CCCCC(C)(C)CO)C(C)(C)O` showed a melting point of 72 to 74 °C.

`CC(=O)OCC1=C(C(=O)OCOC(=O)C(C)(C)C)N2C(=O)C(NC(=O)Cc3csc(=O)s3)C2SC1` (configuration not stated) returned a melting point of 135 °C.

Regarding `Cc1nc(NC(=O)c2ccccc2)cn1CCCCC1(C(=O)NCC(F)(F)F)c2ccccc2-c2ccccc21`, the melting point fell in the range of 145 to 147 °C.

With `CC(C)(C)OC(=O)CON=C(C(=O)O)c1cccs1`, the melting point was in the range of 88.3 to 91.3 °C.

In the case of `O=c1c2cn(S(=O)(=O)CCCCl)nc2n(CC2CC2)c(=O)n1CC1CC1`, the melting point was 95 to 97 °C.

`O=C(CNc1ccccc1)Nc1c(Cl)ccc2nc(N3CC[C@@H](O)C3)ccc12` gave a melting point of 230 to 232 °C.

Compound `CC(S(=O)(=O)c1ccc(OC(F)(F)F)cc1)S(=O)(=O)C(F)(F)F` (configuration not stated) yielded a melting point of 77 to 80 °C.

For `N#Cc1c(N2CCN(C(=O)c3cccs3)CC2)c2cc(F)cnc2n(Cc2ccccc2)c1=O`, the melting point is 173 °C.

For `NC(=O)CCn1c(-c2ccc(Cl)cc2)nc2cccnc21`, the melting point lay in the range of 248 to 250 °C.

For the compound `CCCC(=O)c1ccc(=O)[nH]c1C`, the melting point was 167 to 168 °C.

Consider `CCn1c(N)c(C(=O)NC)c(=O)c2ccc(-c3ccc(CC(=O)O)cc3)nc21`, for which the melting point came out at 260 °C.

On to `Cc1nn(C)c(C)c1Oc1cc(Cl)cc(C#N)c1`, for which the melting point lay within 114 to 116 °C.

As to `Cc1nnc(-c2ccc3occ(-c4cn[nH]c4)c3c2)o1`, the melting point fell in the range of 215 to 216 °C.

Regarding `FC(F)(F)C(F)(F)C(F)(F)C(F)(F)C(F)(F)C(F)(F)C(F)(F)C(F)(F)C(F)(F)C(F)(F)C(F)(F)Br`, the melting point lay in the range of 96 to 98 °C.

Consider `NC(=O)C(=O)NC(C(=O)OC(c1ccccc1)c1ccccc1)c1ccccc1` (configuration not stated), for which the melting point was determined as 168 °C.

In turn, `Cc1nc2c(O[Si](C)(C)C(C)(C)C(C)C)c(CC[C@@H](O)c3ccccc3)c(C(=O)N(C)C)cn2c1C` came in with a melting point of 56 to 58 °C.

In turn, `CCc1c(Cl)c2ccccn2c1C(=O)c1ccc(O)c(Br)c1` displayed a melting point of 204 °C.

Consider `CCCCc1ccc(NCc2ccc(N(C)C)cc2)cc1`, for which the melting point lay within 60 to 61 °C.

The compound `Cc1cccc(C(=O)Cc2ccccc2)c1C` registered a melting point of 52 to 53 °C.

`COc1ccc(COc2cc(NC(C)=O)c(Cl)cc2C(=O)CCCCCl)cc1` came in with a melting point of 147 to 149 °C.

`Cc1ccc(C=NC2CCN(c3cc4c(cc3F)c(=O)c(C(=O)O)cn4-c3ccc(F)cc3)C2)cc1` (configuration not stated) came in with a melting point of 233 to 234 °C.

As for `COC(=O)C1Oc2ccc(Cl)cc2C(c2ccccc2)(c2ccccc2)O1` (configuration not stated), the melting point was determined as 172 °C.

As to `Cc1cnc2c(c1)COP(=S)(c1ccccc1)O2` (configuration not stated), the melting point is 97 to 98 °C.

Compound `OC1CCc2ccc(Oc3c(F)cc(C(F)(F)F)cc3Cl)cc21` (racemic) gave a melting point of 101 to 102 °C.

The compound `CCOCc1nc2c(N)nc(C)c(C)c2n1CCN` registered a melting point of 163 to 166 °C.

`O=S(=O)(c1c(-c2ccc(Cl)cc2)[nH]c(SC(F)(F)F)c1Br)C(F)(F)F` registered a melting point of 122 to 125 °C.

`COC(=O)c1oc2c(sc3ccccc32)c1O` showed a melting point of 124 to 125 °C.

`CC1CC2C3CCC4=CC(=O)C=CC4(C)C3=CCC2(C)C1C(=O)CN1CCN(c2cc(NCC(C)(C)C)nc(NCC(C)(C)C)n2)CC1` (configuration not stated): the melting point lay in the range of 140 to 150 °C.

Consider `O=C1c2cc([N+](=O)[O-])ccc2-n2c1nc1ccccc1c2=O`, for which the melting point lay within 302 to 303 °C.

In turn, `COC(=O)c1ccccc1Sc1cc(C=O)ccc1OC` had a melting point of 99 to 104 °C.

As to `CC(=O)Nc1cccc(-c2c(C)c(NC(=O)CC(C)(C)C)c(C)c3c2OCC3c2ccc(C(C)C)cc2)c1` (configuration not stated), the melting point was in the range of 247 to 248 °C.

The compound `Cc1c(F)ccc([N+](=O)[O-])c1Cl` returned a melting point of 37 to 39 °C.

On to `Cc1cnc(CCCCNc2ncc(Cc3ccc(C)nc3)c(=O)[nH]2)c(Br)c1`, for which the melting point lay in the range of 148 to 151 °C.

In turn, `CCOc1nn(Cc2ccc(OCc3cn4c(OCC)cccc4n3)cc2)cc1CCC(=O)O` showed a melting point of 197 to 198 °C.

In the case of `CC(C)CCS(=O)(=O)c1cccc(-c2nc(=O)c3ccccc3s2)n1`, the melting point lay in the range of 146 to 147 °C.

The compound `Cc1nn(-c2cc3nc(S(=O)Cc4ccccc4)sc3cc2F)c(=O)n1C` (configuration not stated) registered a melting point of 162 to 164 °C.

The compound `COC(=O)C(Oc1cccc2ccccc12)c1ccc(Oc2ccc(Cl)cc2)cc1` (configuration not stated) came in with a melting point of 107 to 110 °C.

In turn, `Cc1cc(C2(C(F)(F)F)CC(c3ccc(F)cc3)=NO2)ccc1NC(=O)OC(C)(C)C` (configuration not stated) displayed a melting point of 149 to 150 °C.

In turn, `Cc1cc(Cl)cc2c1OC(C(F)(F)F)C(C(=O)O)=C2` (configuration not stated) returned a melting point of 232 to 233 °C.

Consider `COc1ccc(-c2cc(=O)n(C)c(=O)n2CC(O)CNC(C)(C)C)cc1OC` (configuration not stated), for which the melting point fell in the range of 123 to 125 °C.

In turn, `CC(C)S(=O)c1cnc(Cl)c(Cl)c1` (configuration not stated) yielded a melting point of 62 to 64 °C.

In turn, `Cc1ccc(C(C=O)=CN(C)C)c([N+](=O)[O-])c1` gave a melting point of 117 to 119 °C.

Compound `NS(=O)(=O)c1ccc(-c2cnn(-c3ccc(F)cc3)c(=O)c2-c2ccc(F)cc2)cc1` yielded a melting point of 213 to 216 °C.

With `CC1SC(=S)N(C)N=C1c1ncc(Cl)cc1F` (configuration not stated), the melting point is 107 to 112 °C.

The compound `COc1ccc(-n2nc(O)c3c(=O)c4ccc(Cl)cc4[nH]c3c2=O)cc1Cl` came in with a melting point of 395 to 396 °C.

Compound `Cc1ccc(OCC(=O)O)c(I)n1` had a melting point of 170 to 172 °C.

In turn, `CC1(CCOC2CCCCO2)C(=O)NNC1=O` (configuration not stated) displayed a melting point of 179 to 180 °C.

In turn, `CS(=O)(=O)Oc1cc(=O)c(OCc2ccccc2)cn1Cc1ccccc1` returned a melting point of 115 to 117 °C.

Consider `CCN(Cc1cc(Br)ccc1OCC1CC1)c1ccc(C(=O)O)nn1`, for which the melting point lay within 73 to 80 °C.

`C[C@@H]1CN(Cc2ccccc2)C[C@H]1C(=O)NC1CC1` (relative stereo) displayed a melting point of 81 to 83 °C.

In the case of `COc1ccc(-c2nc(C)c([N+](=O)[O-])[nH]2)cc1`, the melting point lay within 198 to 204 °C.

For `NC(=O)c1cc(C(O)CNCCCn2nnc3ccccc32)ccc1O` (configuration not stated), the melting point is 154 to 155 °C.

In turn, `CCOC(=O)C1(C)Sc2ccccc2NC1=O` (configuration not stated) gave a melting point of 109 to 111 °C.

The compound `COc1c(C)c(C)c(OCc2ccccc2)c(C)c1CN(C)CCOc1cc(C)ccc1C(C)C` returned a melting point of 138 to 141 °C.

The compound `c1ccc(-c2cccc(N(c3ccccc3)c3ccc4c(c3)Oc3ccc(N(c5ccccc5)c5cccc(-c6ccccc6)c5)cc3O4)c2)cc1` displayed a melting point of 232 °C.

As to `CCOCc1cc(N2C(=O)C3=C(CCCC3)C2=O)c(F)cc1Br`, the melting point was in the range of 104 to 106 °C.

Take `COC(=O)c1cccc(-c2nc(COc3ccc(C=O)cc3OC)c(C)o2)c1`: the melting point lay within 168 to 169 °C.

In turn, `CCc1[nH]n(-c2c(Cl)cc(C(=O)O)cc2Cl)c2nc(Cc3ccc(OC)cc3)nc(=O)c1-2` returned a melting point of 277 °C.

`O=C(OCc1ccccc1)c1cc(-c2ccc(-c3ccc(C(F)(F)F)cc3)o2)ccc1OCc1ccccc1` had a melting point of 97 to 98 °C.

`C=C(Br)Cc1c(O)ccc2c(C)cc(=O)oc12` displayed a melting point of 201 to 202 °C.

`CC(COc1cccc(Oc2ccccc2)c1)OS(N)(=O)=O` (configuration not stated) registered a melting point of 81 to 84 °C.

`CC1(C)C=C(c2ccccn2)c2cc(Cl)cc(Cl)c2OC1` showed a melting point of 124 °C.

The compound `COc1cc(Cc2cnc(NCCCCc3ncc(Br)cc3C)[nH]c2=O)ccn1` gave a melting point of 120 to 121 °C.

On to `CNc1nc(-c2ccc(-c3ccccc3)cc2)c(C(=O)OC)s1`, for which the melting point is more than 230 °C.

With `Cc1cc(C)cc(-c2nc(NC(=O)c3ccncc3)sc2-c2ccncc2)c1`, the melting point is 302 to 304 °C.

`O=C(c1ccc(-c2ccc3nnn(Cc4ccc5ncccc5c4)c3n2)cc1)N1CCN(CCO)CC1` had a melting point of 158 to 160 °C.

In the case of `CC(=O)c1ccc(NS(C)(=O)=O)c(NC(=O)c2ccc(F)cc2F)c1`, the melting point lay in the range of 203 to 204 °C.

`O=C1Nc2cccc(Cl)c2C12COc1cc3c(cc12)OCO3` (configuration not stated) came in with a melting point of 175 to 185 °C.

`CCN(CC)C(=O)CCc1nc(-c2ccccc2)cc2ccccc12` came in with a melting point of 58 °C.

`O=[N+]([O-])c1cnc(N2CCN3CCC2CC3)nc1`: the melting point lay in the range of 135 to 139 °C.

Turning to `CC(C)(C)NC(=O)[C@@H]1C[C@H](Cl)CN1C(=O)OC(C)(C)C`, the melting point is 149 to 150 °C.

For the compound `CCOc1ccccc1C1OC(=O)NC1=O` (configuration not stated), the melting point lay in the range of 165 to 167 °C.

In turn, `CC(C)(C)Nc1cc(Cl)nc(Cl)n1` had a melting point of 192 to 193 °C.

`CCCCc1oc2ccc(-c3nc(C)no3)cc2c1C(=O)c1ccc(O)cc1` displayed a melting point of 180 to 182 °C.

Take `CN1CCN(c2ccc(S(=O)(=O)Oc3c(Cl)cc(Cl)cc3Cl)cc2)C1=O`: the melting point was 185 to 187 °C.

With `O=C(Oc1ccccc1)c1ncn2c1[C@@H]1CCCN1C(=O)c1c(Cl)cccc1-2`, the melting point was 211 to 212 °C.

For `Nc1ccc(C(=O)c2ccccc2)c(Cl)c1`, the melting point was 120 to 130 °C.

The compound `CC(C)(C)C(=O)OCOC(=O)Cn1c(=O)c2cc(Cl)ccc2n(Cc2ccc(Cl)c(Cl)c2)c1=O` registered a melting point of 124 to 126 °C.

`CN1C(=O)c2ccccc2NC(=O)C1c1ccccc1` (configuration not stated) displayed a melting point of 242 to 244 °C.

`Cc1cc(-c2ccccc2)nc(N2CCN(c3ccc(O)cc3)CC2)c1C#N` had a melting point of 207 °C.

`CCCCCCCCCCCCCCCCCCOc1cc(N)cc(OC(C)=O)c1` registered a melting point of 73 to 74 °C.

The compound `O=C(Cc1ccccc1)c1ccc(Cl)c(Cl)c1` had a melting point of 84 to 85 °C.

Compound `N#CCCN(CCC#N)c1ccccc1C#N` displayed a melting point of 79 to 82 °C.

For `C=CCOc1ccnc2c([N+](=O)[O-])cccc12`, the melting point stood at 127 °C.

For the compound `Cc1nn(-c2cc(OC(C)C)c(Cl)cc2Cl)c(C)c1C`, the melting point is 56 to 58 °C.

The compound `O=C(O)CCCN(Cc1cccc(Cl)c1)Cc1cccc(Cl)c1` showed a melting point of 170 to 173 °C.

`CC(C)C[C@@H](C(=O)OC(C)(C)C)N1C(=O)NC(C(F)(F)F)(C(F)(F)F)C1=O` yielded a melting point of 105 to 106 °C.

The melting point is the temperature, or range, at which the solid turns liquid.
